In the supplement of paper PMC5908809:

Experiments:
[1] = tested on: normal NK cells expanded with K562-aAPC; assay: percent inhibition of viability; higher = more inhibition; details: 72 h, IL-2 2.5 ng/mL
Procedure: (§1)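 Drug sensitivity and resistance testing on K562-aAPC-expanded normal NK cells: 5 concentrations (10-fold steps over a 10,000-fold range), 72 h at 37 °C, viability by CellTiter-Glo normalised to DMSO and benzethonium chloride controls; DSS from the fitted curve.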

DERL-7 (IL-2 2.5 ng/mL) [2] = assay: as above; details: 72 h
IMC-1 (IL-2 20 ng/mL) [3] = assay: as above; details: 72 h
KAI3 (IL-2 2.5 ng/mL) [4] = assay: as above; details: 72 h
KHYG-1 (IL-2 2.5 ng/mL) [5] = assay: as above; details: 72 h
NK-92 (IL-2 2.5 ng/mL) [6] = assay: as above; details: 72 h
NK-YS (IL-2 2.5 ng/mL) [7] = assay: as above; details: 72 h
NKL (IL-2 2.5 ng/mL) [8] = assay: as above; details: 72 h
SNK-6 (IL-2 2.5 ng/mL) [9] = assay: as above; details: 72 h
YT (IL-2 2.5 ng/mL) [10] = assay: as above; details: 72 h
[11] = tested on: normal primary NK cells, pool 1 (3 donors) (IL-2 2.5 ng/mL); assay: as above; details: 72 h
[12] = tested on: normal primary NK cells, pool 1 (3 donors), resting (IL-2 0 ng/mL); assay: as above; details: 72 h
[13] = tested on: normal primary NK cells, pool 2 (3 donors) (IL-2 2.5 ng/mL); assay: as above; details: 72 h
[14] = tested on: normal primary NK cells, pool 3 (3 donors) (IL-2 2.5 ng/mL); assay: as above; details: 72 h
[15] = tested on: normal NK cells expanded with K562-aAPC; assay: drug sensitivity score (DSS) (DSS units); higher = more sensitive; extreme values may be limits of the assay; details: 72 h; IL-2 2.5 ng/mL
Procedure: as §1

DERL-7 (IL-2 2.5 ng/mL) [16] = assay: as above; details: 72 h
IMC-1 (IL-2 20 ng/mL) [17] = assay: as above; details: 72 h
KAI3 (IL-2 2.5 ng/mL) [18] = assay: as above; details: 72 h
KHYG-1 (IL-2 2.5 ng/mL) [19] = assay: as above; details: 72 h
NK-92 (IL-2 2.5 ng/mL) [20] = assay: as above; details: 72 h
NK-YS (IL-2 2.5 ng/mL) [21] = assay: as above; details: 72 h
NKL (IL-2 2.5 ng/mL) [22] = assay: as above; details: 72 h
SNK-6 (IL-2 2.5 ng/mL) [23] = assay: as above; details: 72 h
YT (IL-2 2.5 ng/mL) [24] = assay: as above; details: 72 h
[25] = tested on: normal primary NK cells, pool 1 (3 donors) (IL-2 2.5 ng/mL); assay: as above; details: 72 h
[26] = tested on: normal primary NK cells, pool 1 (3 donors), resting (IL-2 0 ng/mL); assay: as above; details: 72 h
[27] = tested on: normal primary NK cells, pool 2 (3 donors) (IL-2 2.5 ng/mL); assay: as above; details: 72 h
[28] = tested on: normal primary NK cells, pool 3 (3 donors) (IL-2 2.5 ng/mL); assay: as above; details: 72 h

NC(=O)c1cccc(-c2cccc(OC(=O)NC3CCCCC3)c2)c1 [URB597] (max concentration tested 1000 nM)
percent inhibition of viability [%]
Details | 0.1 nM | 1 nM | 10 nM | 100 nM | 1000 nM
DERL-7 (IL-2 2.5 ng/mL) [2] | 11 | 4.35 | 12 | 5.02 | 5.08
IMC-1 (IL-2 20 ng/mL) [3] | -4 | 4.78 | 2.31 | 4 | 3.07
KAI3 (IL-2 2.5 ng/mL) [4] | -3.62 | -6.19 | -2.65 | -2.84 | 16.1
KHYG-1 (IL-2 2.5 ng/mL) [5] | -1.98 | 3.31 | 2.01 | 2.83 | 7.66
NK-92 (IL-2 2.5 ng/mL) [6] | 1.97 | 3.05 | 12.2 | -3.48 | 7.28
NK-YS (IL-2 2.5 ng/mL) [7] | -1.3 | 0.73 | 8.14 | 5.17 | 8.51
NKL (IL-2 2.5 ng/mL) [8] | 3.64 | 0.02 | 13.3 | 15.1 | 14.2
SNK-6 (IL-2 2.5 ng/mL) [9] | -7.3 | 9.09 | 10.3 | 2.22 | 2.83
YT (IL-2 2.5 ng/mL) [10] | 1.76 | 2.28 | 2.53 | 3.49 | 9.4
[1] | -5.77 | -3.62 | -1 | 7.42 | 7.56
[11] | 5.21 | -3.54 | 1.12 | -15.5 | -7.59
[12] | -1.65 | -9.18 | 1.01 | -15.8 | -6.01
[13] | -11.5 | -5.88 | 15.1 | -7.18 | 8.87
[14] | -10.1 | -1.33 | 5.88 | -9.83 | 6.07

Details | drug sensitivity score
DERL-7 (IL-2 2.5 ng/mL) [16] | 0
IMC-1 (IL-2 20 ng/mL) [17] | 0
KAI3 (IL-2 2.5 ng/mL) [18] | 0.21
KHYG-1 (IL-2 2.5 ng/mL) [19] | 0
NK-92 (IL-2 2.5 ng/mL) [20] | 0
NK-YS (IL-2 2.5 ng/mL) [21] | 0
NKL (IL-2 2.5 ng/mL) [22] | 2.41
SNK-6 (IL-2 2.5 ng/mL) [23] | 0
YT (IL-2 2.5 ng/mL) [24] | 0
[15] | 0
[25] | 0
[26] | 0
[27] | 0
[28] | 0

CC[C@H](C)C(=O)O[C@H]1C[C@@H](C)C=C2C=C[C@H](C)[C@H](CC[C@@H]3C[C@@H](O)CC(=O)O3)[C@H]21 [Lovastatin] (max concentration tested 10000 nM)
percent inhibition of viability [%]
Details | 1 nM | 10 nM | 100 nM | 1000 nM | 10000 nM
DERL-7 (IL-2 2.5 ng/mL) [2] | 2.67 | -1.74 | 3.23 | -2.63 | 7.15
IMC-1 (IL-2 20 ng/mL) [3] | 0.36 | -4.93 | -3.87 | -8.19 | 5.39
KAI3 (IL-2 2.5 ng/mL) [4] | 0.53 | 3.49 | -3.97 | 0.77 | 14
KHYG-1 (IL-2 2.5 ng/mL) [5] | 0.32 | -1.28 | -1.4 | 5.79 | 9.85
NK-92 (IL-2 2.5 ng/mL) [6] | -12 | -4.31 | 2.92 | -2.72 | 4.38
NK-YS (IL-2 2.5 ng/mL) [7] | -0.66 | -1.57 | -0.61 | 9.14 | 57.5
NKL (IL-2 2.5 ng/mL) [8] | -8.92 | -7.04 | -16.3 | -3.47 | 50.5
SNK-6 (IL-2 2.5 ng/mL) [9] | 9.2 | 3.13 | 18.8 | 3.99 | -5.4
YT (IL-2 2.5 ng/mL) [10] | 1.08 | 0.01 | -2.08 | 1.47 | 15
[1] | 0.56 | -5.1 | -9.52 | -6.29 | -8.93
[11] | -9.05 | -11.9 | -5.92 | 4.69 | 0.82
[12] | -2.63 | -14.8 | -15 | 10.9 | 16
[13] | -9.06 | -2.92 | -2.71 | -5.88 | -6.36
[14] | -7.92 | -10.5 | -6.75 | -10.6 | -16

Details | drug sensitivity score
DERL-7 (IL-2 2.5 ng/mL) [16] | 0
IMC-1 (IL-2 20 ng/mL) [17] | 0
KAI3 (IL-2 2.5 ng/mL) [18] | 0.22
KHYG-1 (IL-2 2.5 ng/mL) [19] | 0
NK-92 (IL-2 2.5 ng/mL) [20] | 0
NK-YS (IL-2 2.5 ng/mL) [21] | 4.64
NKL (IL-2 2.5 ng/mL) [22] | 2.39
SNK-6 (IL-2 2.5 ng/mL) [23] | 0
YT (IL-2 2.5 ng/mL) [24] | 0.36
[15] | 0
[25] | 0
[26] | 1.12
[27] | 0
[28] | 0

NS(=O)(=O)OC[C@@H]1C[C@@H](n2ccc3c(N[C@H]4CCc5ccccc54)ncnc32)C[C@@H]1O [Pevonedistat] (max concentration tested 10000 nM)
percent inhibition of viability [%]
Details | 1 nM | 10 nM | 100 nM | 1000 nM | 10000 nM
DERL-7 (IL-2 2.5 ng/mL) [2] | 1.08 | 2.36 | -6.58 | 91.5 | 101
IMC-1 (IL-2 20 ng/mL) [3] | 0.59 | 6.87 | 46.6 | 92.8 | 98.2
KAI3 (IL-2 2.5 ng/mL) [4] | 9.59 | 12.4 | 70.2 | 95 | 100
KHYG-1 (IL-2 2.5 ng/mL) [5] | 3.14 | -1.1 | 71.7 | 105 | 106
NK-92 (IL-2 2.5 ng/mL) [6] | -8.15 | 6.99 | 1.09 | 75.8 | 109
NK-YS (IL-2 2.5 ng/mL) [7] | 0.95 | -1.33 | 3.83 | 78.1 | 98.4
NKL (IL-2 2.5 ng/mL) [8] | -12.9 | -14.6 | -16.9 | 92.3 | 104
SNK-6 (IL-2 2.5 ng/mL) [9] | 23.6 | 3.72 | 89 | 97.2 | 99.5
YT (IL-2 2.5 ng/mL) [10] | -2.08 | 2.87 | 62.7 | 79.6 | 82.8
[1] | -5 | -5.72 | -9.68 | 70.2 | 80.3
[11] | -6.09 | 19.2 | 23.3 | 57.4 | 69.8
[12] | 1.82 | 21.5 | -26.7 | -18.9 | -22.4
[13] | -6.66 | 4.92 | 9.96 | 45 | 64.2
[14] | -5.71 | 5 | 10.3 | 68.8 | 81

Details | drug sensitivity score
DERL-7 (IL-2 2.5 ng/mL) [16] | 16.3
IMC-1 (IL-2 20 ng/mL) [17] | 22.6
KAI3 (IL-2 2.5 ng/mL) [18] | 27.2
KHYG-1 (IL-2 2.5 ng/mL) [19] | 26.2
NK-92 (IL-2 2.5 ng/mL) [20] | 14.2
NK-YS (IL-2 2.5 ng/mL) [21] | 15
NKL (IL-2 2.5 ng/mL) [22] | 16.1
SNK-6 (IL-2 2.5 ng/mL) [23] | 29
YT (IL-2 2.5 ng/mL) [24] | 22.8
[15] | 12.6
[25] | 14
[26] | 0
[27] | 9.66
[28] | 14
